ChEMBL document CHEMBL5346973 (J Med Chem, 2023)
Where a SMILES comes first, the peptide text is derived from it.

What was measured:
[1] = biological target: Nicotinic acetylcholine receptor alpha9/alpha10 (Rattus norvegicus, UniProt P43144+Q9JLB5); assay: Antagonist activity at rat alpha9alpha10 nACh receptor expressed in Xenopus oocyte assessed as inhibition of acetylcholine-induced response at -70 mV holding potential by voltage-clamp based electrophysiological assay; format: cell-based
[2] = biological target: Neuronal acetylcholine receptor subunit alpha-7 (Rattus norvegicus, UniProt Q05941); assay: Antagonist activity at rat alpha7 nACh receptor expressed in Xenopus oocyte assessed as inhibition of acetylcholine-induced response at -70 mV holding potential by voltage-clamp based electrophysiological assay; format: cell-based
Chain of Neuronal acetylcholine receptor subunit alpha-7 (Q05941 whole entry): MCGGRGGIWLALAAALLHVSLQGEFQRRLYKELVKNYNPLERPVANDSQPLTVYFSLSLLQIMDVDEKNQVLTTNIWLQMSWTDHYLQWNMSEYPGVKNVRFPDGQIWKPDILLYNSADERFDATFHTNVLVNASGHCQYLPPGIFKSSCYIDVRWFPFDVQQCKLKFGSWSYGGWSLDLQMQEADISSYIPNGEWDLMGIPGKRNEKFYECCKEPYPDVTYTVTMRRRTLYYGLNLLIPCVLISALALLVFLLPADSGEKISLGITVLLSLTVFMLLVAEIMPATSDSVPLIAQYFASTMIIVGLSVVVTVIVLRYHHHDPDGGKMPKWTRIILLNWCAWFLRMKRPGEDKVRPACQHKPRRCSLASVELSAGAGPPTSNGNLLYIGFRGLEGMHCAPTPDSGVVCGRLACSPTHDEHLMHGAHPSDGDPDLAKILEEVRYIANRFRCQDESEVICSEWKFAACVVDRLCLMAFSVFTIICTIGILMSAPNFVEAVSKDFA

Chain of Nicotinic acetylcholine receptor alpha9/alpha10 (P43144 whole entry): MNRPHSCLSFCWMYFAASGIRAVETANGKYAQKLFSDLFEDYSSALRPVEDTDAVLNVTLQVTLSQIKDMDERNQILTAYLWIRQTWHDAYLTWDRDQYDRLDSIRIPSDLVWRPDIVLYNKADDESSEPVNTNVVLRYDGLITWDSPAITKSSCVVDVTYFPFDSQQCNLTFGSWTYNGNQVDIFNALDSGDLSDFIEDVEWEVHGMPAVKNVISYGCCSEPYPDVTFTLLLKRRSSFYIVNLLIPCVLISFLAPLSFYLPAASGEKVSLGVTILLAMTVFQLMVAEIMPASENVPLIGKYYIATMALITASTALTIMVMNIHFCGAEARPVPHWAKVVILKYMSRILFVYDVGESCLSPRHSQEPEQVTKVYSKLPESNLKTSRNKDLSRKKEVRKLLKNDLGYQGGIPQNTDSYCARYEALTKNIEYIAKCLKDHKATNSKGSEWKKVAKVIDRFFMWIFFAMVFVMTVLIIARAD
Chain of Nicotinic acetylcholine receptor alpha9/alpha10 (Q9JLB5 whole entry): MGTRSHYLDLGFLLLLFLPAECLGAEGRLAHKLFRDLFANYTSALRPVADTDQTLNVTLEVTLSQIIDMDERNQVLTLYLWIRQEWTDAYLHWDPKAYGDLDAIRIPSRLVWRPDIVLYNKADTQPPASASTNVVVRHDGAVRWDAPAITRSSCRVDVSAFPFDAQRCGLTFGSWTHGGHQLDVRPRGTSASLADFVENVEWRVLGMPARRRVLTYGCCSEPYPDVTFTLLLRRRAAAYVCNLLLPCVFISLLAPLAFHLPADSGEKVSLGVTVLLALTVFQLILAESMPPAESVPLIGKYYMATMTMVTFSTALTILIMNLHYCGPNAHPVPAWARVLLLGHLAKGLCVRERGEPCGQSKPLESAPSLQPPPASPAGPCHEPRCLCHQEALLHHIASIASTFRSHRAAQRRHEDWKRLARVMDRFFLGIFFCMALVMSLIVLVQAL

Structure (SMILES)	IC50 [1] [nM]	IC50 [2] [nM]
CC[C@H](C)[C@@H]1NC(=O)[C@H](CCCNC(=N)N)NC(=O)[C@H](C)NC(=O)[C@@H](NC(=O)[C@H](Cc2ccc(O)cc2)NC(=O)[C@H](CCCNC(=N)N)NC(=O)[C@H](CCCNC(=N)N)NC(=O)[C@H](CCCNC(=N)N)NC(=O)[C@H](CCCNC(=N)N)NC(=O)[C@H](CC(=O)O)NC(=O)[C@H](Cc2ccc(O)cc2)NC(=O)[C@@H]2CCCN2C(=O)[C@H](CO)NC(=O)[C@H](CCCNC(=N)N)NC(=O)[C@@H]2CSSC[C@H](NC(=O)[C@@H](N)[C@@H](C)O)C(=O)N[C@@H](CCCNC(=N)N)C(=O)N[C@@H](CO)C(=O)N[C@@H](CO)C(=O)NCC(=O)N[C@@H](CCCNC(=N)N)C(=O)N[C@@H](Cc3ccc(O)cc3)C(=O)N2)CSSC[C@@H](C(=O)N[C@H](C(=O)O)C(C)C)NC(=O)[C@H](C)NC(=O)[C@H](CC(=O)O)NC(=O)[C@H]([C@@H](C)O)NC1=O	14	5610
CC[C@H](C)[C@@H]1NC(=O)[C@H](CCCNC(=N)N)NC(=O)[C@H](CCCNC(=N)N)NC(=O)[C@@H](NC(=O)[C@H](Cc2ccc(O)cc2)NC(=O)[C@H](CCCNC(=N)N)NC(=O)[C@H](CCCNC(=N)N)NC(=O)[C@H](C)NC(=O)[C@H](CCCNC(=N)N)NC(=O)[C@H](CC(=O)O)NC(=O)[C@H](Cc2ccc(O)cc2)NC(=O)[C@@H]2CCCN2C(=O)[C@H](CO)NC(=O)[C@H](CCCNC(=N)N)NC(=O)[C@@H]2CSSC[C@H](NC(=O)[C@@H](N)[C@@H](C)O)C(=O)N[C@@H](CCCNC(=N)N)C(=O)N[C@@H](CO)C(=O)N[C@@H](CO)C(=O)NCC(=O)N[C@@H](CCCNC(=N)N)C(=O)N[C@@H](Cc3ccc(O)cc3)C(=O)N2)CSSC[C@@H](C(=O)N[C@H](C(=O)O)C(C)C)NC(=O)[C@H](C)NC(=O)[C@H](CC(=O)O)NC(=O)[C@H]([C@@H](C)O)NC1=O	18	3780
CC[C@H](C)[C@@H]1NC(=O)[C@H](CCCNC(=N)N)NC(=O)[C@H](CCCNC(=N)N)NC(=O)[C@@H]2CSSC[C@H](NC(=O)[C@H](Cc3ccc(O)cc3)NC(=O)[C@H](CCCNC(=N)N)NC(=O)CNC(=O)[C@H](CO)NC(=O)[C@H](CO)NC(=O)[C@H](CCCNC(=N)N)NC(=O)[C@@H](NC(=O)[C@@H](N)[C@@H](C)O)CSSC[C@@H](C(=O)N[C@H](C(=O)O)C(C)C)NC(=O)[C@H](C)NC(=O)[C@H](CC(=O)O)NC(=O)[C@H]([C@@H](C)O)NC1=O)C(=O)N[C@@H](CCCNC(=N)N)C(=O)N[C@@H](CO)C(=O)N[C@@H](C)C(=O)N[C@@H](Cc1ccc(O)cc1)C(=O)N[C@@H](CC(=O)O)C(=O)N[C@@H](CCCNC(=N)N)C(=O)N[C@@H](CCCNC(=N)N)C(=O)N[C@@H](CCCNC(=N)N)C(=O)N[C@@H](CCCNC(=N)N)C(=O)N[C@@H](Cc1ccc(O)cc1)C(=O)N2 (HELM PEPTIDE1{T.C.R.S.S.G.R.Y.C.R.S.A.Y.D.R.R.R.R.Y.C.R.R.I.T.D.A.C.V}$PEPTIDE1,PEPTIDE1,2:R3-27:R3|PEPTIDE1,PEPTIDE1,9:R3-20:R3$$$V2.0)	10	1780
CC[C@H](C)[C@@H]1NC(=O)[C@H](CCCNC(=N)N)NC(=O)[C@H](CCCNC(=N)N)NC(=O)[C@@H]2CSSC[C@H](NC(=O)[C@H](Cc3ccc(O)cc3)NC(=O)[C@H](CCCNC(=N)N)NC(=O)CNC(=O)[C@H](CO)NC(=O)[C@H](CO)NC(=O)[C@H](CCCNC(=N)N)NC(=O)[C@@H](NC(=O)[C@@H](N)[C@@H](C)O)CSSC[C@@H](C(=O)N[C@H](C(=O)O)C(C)C)NC(=O)[C@H](C)NC(=O)[C@H](CC(=O)O)NC(=O)[C@H]([C@@H](C)O)NC1=O)C(=O)N[C@@H](CCCNC(=N)N)C(=O)N[C@@H](CO)C(=O)N1CCC[C@H]1C(=O)N[C@@H](Cc1ccc(O)cc1)C(=O)N[C@@H](CC(=O)O)C(=O)N[C@@H](CCCNC(=N)N)C(=O)N[C@@H](C)C(=O)N[C@@H](CCCNC(=N)N)C(=O)N[C@@H](CCCNC(=N)N)C(=O)N[C@@H](Cc1ccc(O)cc1)C(=O)N2	83	> 10000
CC[C@H](C)[C@@H]1NC(=O)[C@H](CCCNC(=N)N)NC(=O)[C@H](CCCNC(=N)N)NC(=O)[C@@H](NC(=O)[C@H](Cc2ccc(O)cc2)NC(=O)[C@H](CCCNC(=N)N)NC(=O)[C@H](CCCNC(=N)N)NC(=O)[C@H](CCCNC(=N)N)NC(=O)[C@H](CCCNC(=N)N)NC(=O)[C@H](CC(=O)O)NC(=O)[C@H](Cc2ccc(O)cc2)NC(=O)[C@@H]2CCCN2C(=O)[C@H](CO)NC(=O)[C@H](CCCNC(=N)N)NC(=O)[C@@H]2CSSC[C@H](NC(=O)[C@@H](N)[C@@H](C)O)C(=O)N[C@@H](CCCNC(=N)N)C(=O)N[C@@H](CO)C(=O)N[C@@H](CO)C(=O)NCC(=O)N[C@@H](C)C(=O)N[C@@H](Cc3ccc(O)cc3)C(=O)N2)CSSC[C@@H](C(=O)N[C@H](C(=O)O)C(C)C)NC(=O)[C@H](C)NC(=O)[C@H](CC(=O)O)NC(=O)[C@H]([C@@H](C)O)NC1=O (HELM PEPTIDE1{T.C.R.S.S.G.A.Y.C.R.S.P.Y.D.R.R.R.R.Y.C.R.R.I.T.D.A.C.V}$PEPTIDE1,PEPTIDE1,2:R3-9:R3|PEPTIDE1,PEPTIDE1,20:R3-27:R3$$$V2.0)	44	1470
CC[C@H](C)[C@@H]1NC(=O)[C@H](CCCNC(=N)N)NC(=O)[C@H](CCCNC(=N)N)NC(=O)[C@@H](NC(=O)[C@H](C)NC(=O)[C@H](CCCNC(=N)N)NC(=O)[C@H](CCCNC(=N)N)NC(=O)[C@H](CCCNC(=N)N)NC(=O)[C@H](CCCNC(=N)N)NC(=O)[C@H](CC(=O)O)NC(=O)[C@H](Cc2ccc(O)cc2)NC(=O)[C@@H]2CCCN2C(=O)[C@H](CO)NC(=O)[C@H](CCCNC(=N)N)NC(=O)[C@@H]2CSSC[C@H](NC(=O)[C@@H](N)[C@@H](C)O)C(=O)N[C@@H](CCCNC(=N)N)C(=O)N[C@@H](CO)C(=O)N[C@@H](CO)C(=O)NCC(=O)N[C@@H](CCCNC(=N)N)C(=O)N[C@@H](Cc3ccc(O)cc3)C(=O)N2)CSSC[C@@H](C(=O)N[C@H](C(=O)O)C(C)C)NC(=O)[C@H](C)NC(=O)[C@H](CC(=O)O)NC(=O)[C@H]([C@@H](C)O)NC1=O	16	4620
CC(C)[C@H](NC(=O)[C@@H]1CSSC[C@H](NC(=O)[C@H](Cc2ccc(O)cc2)NC(=O)[C@H](CCCNC(=N)N)NC(=O)[C@H](CCCNC(=N)N)NC(=O)[C@H](CCCNC(=N)N)NC(=O)[C@H](CCCNC(=N)N)NC(=O)[C@H](CC(=O)O)NC(=O)[C@H](Cc2ccc(O)cc2)NC(=O)[C@@H]2CCCN2C(=O)[C@H](CO)NC(=O)[C@H](CCCNC(=N)N)NC(=O)[C@@H]2CSSC[C@H](NC(=O)[C@@H](N)[C@@H](C)O)C(=O)N[C@@H](CCCNC(=N)N)C(=O)N[C@@H](CO)C(=O)N[C@@H](CO)C(=O)NCC(=O)N[C@@H](CCCNC(=N)N)C(=O)N[C@@H](Cc3ccc(O)cc3)C(=O)N2)C(=O)N[C@@H](CCCNC(=N)N)C(=O)N[C@@H](CCCNC(=N)N)C(=O)N[C@@H](C)C(=O)N[C@@H]([C@@H](C)O)C(=O)N[C@@H](CC(=O)O)C(=O)N[C@@H](C)C(=O)N1)C(=O)O	16	640
CC[C@H](C)[C@@H]1NC(=O)[C@H](C)NC(=O)[C@H](CCCNC(=N)N)NC(=O)[C@@H](NC(=O)[C@H](Cc2ccc(O)cc2)NC(=O)[C@H](CCCNC(=N)N)NC(=O)[C@H](CCCNC(=N)N)NC(=O)[C@H](CCCNC(=N)N)NC(=O)[C@H](CCCNC(=N)N)NC(=O)[C@H](CC(=O)O)NC(=O)[C@H](Cc2ccc(O)cc2)NC(=O)[C@@H]2CCCN2C(=O)[C@H](CO)NC(=O)[C@H](CCCNC(=N)N)NC(=O)[C@@H]2CSSC[C@H](NC(=O)[C@@H](N)[C@@H](C)O)C(=O)N[C@@H](CCCNC(=N)N)C(=O)N[C@@H](CO)C(=O)N[C@@H](CO)C(=O)NCC(=O)N[C@@H](CCCNC(=N)N)C(=O)N[C@@H](Cc3ccc(O)cc3)C(=O)N2)CSSC[C@@H](C(=O)N[C@H](C(=O)O)C(C)C)NC(=O)[C@H](C)NC(=O)[C@H](CC(=O)O)NC(=O)[C@H]([C@@H](C)O)NC1=O	54	600
CC[C@H](C)[C@@H]1NC(=O)[C@H](CCCNC(=N)N)NC(=O)[C@H](CCCNC(=N)N)NC(=O)[C@@H](NC(=O)[C@H](Cc2ccc(O)cc2)NC(=O)[C@H](CCCNC(=N)N)NC(=O)[C@H](CCCNC(=N)N)NC(=O)[C@H](CCCNC(=N)N)NC(=O)[C@H](CCCNC(=N)N)NC(=O)[C@H](C)NC(=O)[C@H](Cc2ccc(O)cc2)NC(=O)[C@@H]2CCCN2C(=O)[C@H](CO)NC(=O)[C@H](CCCNC(=N)N)NC(=O)[C@@H]2CSSC[C@H](NC(=O)[C@@H](N)[C@@H](C)O)C(=O)N[C@@H](CCCNC(=N)N)C(=O)N[C@@H](CO)C(=O)N[C@@H](CO)C(=O)NCC(=O)N[C@@H](CCCNC(=N)N)C(=O)N[C@@H](Cc3ccc(O)cc3)C(=O)N2)CSSC[C@@H](C(=O)N[C@H](C(=O)O)C(C)C)NC(=O)[C@H](C)NC(=O)[C@H](CC(=O)O)NC(=O)[C@H]([C@@H](C)O)NC1=O (HELM PEPTIDE1{T.C.R.S.S.G.R.Y.C.R.S.P.Y.A.R.R.R.R.Y.C.R.R.I.T.D.A.C.V}$PEPTIDE1,PEPTIDE1,2:R3-9:R3|PEPTIDE1,PEPTIDE1,20:R3-27:R3$$$V2.0)	15	3080
CC[C@H](C)[C@@H]1NC(=O)[C@H](CCCNC(=N)N)NC(=O)[C@H](CCCNC(=N)N)NC(=O)[C@@H]2CSSC[C@H](NC(=O)[C@H](Cc3ccc(O)cc3)NC(=O)[C@H](C)NC(=O)CNC(=O)[C@H](CO)NC(=O)[C@H](CO)NC(=O)[C@H](CCCNC(=N)N)NC(=O)[C@@H](NC(=O)[C@@H](N)[C@@H](C)O)CSSC[C@@H](C(=O)N[C@H](C(=O)O)C(C)C)NC(=O)[C@H](C)NC(=O)[C@H](CC(=O)O)NC(=O)[C@H]([C@@H](C)O)NC1=O)C(=O)N[C@@H](CCCNC(=N)N)C(=O)N[C@@H](CO)C(=O)N1CCC[C@H]1C(=O)N[C@@H](Cc1ccc(O)cc1)C(=O)N[C@@H](CC(=O)O)C(=O)N[C@@H](CCCNC(=N)N)C(=O)N[C@@H](CCCNC(=N)N)C(=O)N[C@@H](CCCNC(=N)N)C(=O)N[C@@H](CCCNC(=N)N)C(=O)N[C@@H](Cc1ccc(O)cc1)C(=O)N2 (HELM PEPTIDE1{T.C.R.S.S.G.A.Y.C.R.S.P.Y.D.R.R.R.R.Y.C.R.R.I.T.D.A.C.V}$PEPTIDE1,PEPTIDE1,2:R3-27:R3|PEPTIDE1,PEPTIDE1,9:R3-20:R3$$$V2.0)	48	> 10000
